Data published in US8084621B2, “3-Pyrrolo[b]cyclohexylene-2-dihydroindolinone derivatives and uses thereof” (Jiangsu Simcere Pharmaceutical R&D Co. Ltd., priority 2006, dated 2011).

Tests used:
Assay type in all cases: cell-based
[1] = test system: Human Small Cell Lung Cancer Cell Line (NCI-H446); assay: Tumor cell proliferation assay (MTT), NCI-H446; settings: for inhibition at 10 µM: concentration of 10^−5 mol/L, preliminary screening, 72 hours, read-out: Inhibition rate % NCI-H446; for IC50: secondary screening, 48 hours
Source text: (§1) The assay used generally is the blue tetrazolium bromide (MTT) method. […] The amount of formazan can be detected by the microplate reader through the absorption value at 570 nm. The amount of formazan product generated is proportional to the number of living cells in the sample, so the OD value may reflect the number of living cells and the ability of a test drug to inhibit or kill cells. The MTT assay may be used in determining the ability of different compounds of the present invention to inhibit one or more cancer cells proliferation. Similar assays can be designed along the same lines for any cancer cell using techniques well known in the art.
(§2) The assay used generally is the blue tetrazolium bromide (MTT) method. […] Intracellular purple formazan salt crystals can be solved in DMSO and the absorption value at 570 nm is detected by the microplate reader, then the number of living cells can be detected indirectly. So MTT assay may be used to determine the ability of a compound of the present invention to inhibit cell proliferation. Similar assays can be designed along the same lines for any cancer cell using techniques well known in the art.
2.2.5 Human Small Cell Lung Cancer Cell Line (NCI-H446)
The cells of the 2.2.1, 2.2.2, 2.2.3, 2.2.4, 2.2.5 cultured with RPMI 1640 containing 12% calf serum in the condition of 37° C., 5% CO2.
(§3) 2.3.1 Cell seeding: Trypsinize the cell by 0.05% trypsin-EDTA and add RPMI 1640 medium (DMEM or 5A) containing 12% calf serum. Count the number, then dilute to 1.67×10^4/ml. Add 180 ul/well to the 96 well plate (3000 cells/well).
(§4) 2.3.2 Culture: cells are incubated for 24 hours at 37° C. under 5% CO2.
(§5) 2.3.3 Preliminary screening: The compounds are firstly diluted to 0.1 mol/L with DMSO, and then diluted to three concentrations of 10^−5 mol/L, 10^−6 mol/L and 10^−7 mol/L. Add 20 ul test compounds to the 96 well plate and incubate for 72 hours. Each group has three parallel wells and all experiments repeat three times. Each inhibition ratio is calculated, then an average value of three times is taken as the measured value. 2.3.4 Staining 2.3.4.1 Attached cell: add 20 ul/well MTT to the 96-well plates; incubate for 4 hours in the incubator. Pour out the culture medium in the well and add 100 ul/well DMSO. Shake the plate for 5 min. 2.3.4.2 Suspension cell: add 20 ul/well MTT to the 96-well plates; incubate for 4 hours in the incubator. Add 50 ul/well 20% SDS and incubate for overnight in the incubator. 2.3.5 Reading the plates: read the absorbance A570-A630 with the Infinite M200 microtiter plate reader. Calculate the inhibition ratio of the test compounds. 2.3.6 Secondary screening: the compounds whose inhibition ratio is greater than 50% at the concentrations of 10^−5 mol/L in the preliminary screening will be picked out for Secondary screening. Dilute these compounds to ten concentrations: 10^−5 mol/L, 0.5×10^−5 mol/L, 10^−6 mol/L, 0.8×10^−6 mol/L, 0.6×10^−6 mol/L, 0.4×10^−6 mol/L, 0.2×10^−6 mol/L, 10^−7 mol/L, 0.8×10^−7 mol/L and 0.4×10^−7 mol/L. Add 20 ul test compound solution to the 96 well plate and incubate for 48 hours. Each group has three parallel wells and all experiments repeat for three times. Read the plates and calculate the inhibition ratio according to the preliminary screening method. 2.3.7 Calculate the Inhibition Ratio of Cell Proliferation and the IC50
(§6) According to the inhibition ratio of cell proliferation at the different concentrations of the compound, inhibition ratio of 50% of the test compound is calculated through the logarithm of the concentration of the compound with the Logit [I] linear regression, and an average value of three times is taken as the measured value of a sample.

[2] = test system: Human Hepatocellular Carcinoma Cell Line (HEPG2); assay: Tumor cell proliferation assay (MTT), HEPG2; settings: for inhibition at 10 µM: concentration of 10^−5 mol/L, preliminary screening, 72 hours, read-out: Inhibition rate % HEPG2; for IC50: secondary screening, 48 hours
Source text: as §1, §2
2.2.8 Human Hepatocellular Carcinoma Cell Line (HEPG2);
The cells of 2.2.8, 2.2.9 cultured in DMEM/High glucose medium containing 12% calf serum in the condition of 37° C., 5% CO2.
as §3, §4, §5, §6

[3] = test system: Human Bladder Cancer Cell Line (T24); assay: Tumor cell proliferation assay (MTT), T24; settings: for inhibition at 10 µM: concentration of 10^−5 mol/L, preliminary screening, 72 hours, read-out: Inhibition rate % T24; for IC50: secondary screening, 48 hours
Source text: as §1, §2
2.2.7 Human Bladder Cancer Cell Line (T24);
The cells of 2.2.6, 2.2.7 cultured in RPMI 1640 medium containing 12% fetal bovine serum in the condition of 37° C., 5% CO2.
as §3, §4, §5, §6

SMILES | inhibition at 10 µM [1] | IC50 [1] | inhibition at 10 µM [2] | IC50 [2] | inhibition at 10 µM [3] | IC50 [3]
Cc1[nH]c2c(c1C(=O)NCC(O)CN1CCCC1)CCC/C2=C1/C(=O)Nc2ccc(F)cc21 (stereo not drawn) [I-71, N-(2-hydroxy-3-(pyrrolidin-1-yl)propyl)-2-methyl-7-[1,2-dihydro-5-fluoro-2-oxo-3H-indol-(Z)-3-ylidene]-4,5,6,7-tetrahydro-1H-indole-3-carboxamide] | 87.5% | 2.52 µM |  |  |  | 
CCN(CC)CCNC(=O)c1c(C)[nH]c2c1CCC/C2=C1/C(=O)Nc2ccc(C)cc21 [I-4, N-(2-(diethylamino)ethyl)-2-methyl-7-[1,2-dihydro-5-methyl-2-oxo-3H-indol-(Z)-3-ylidene]-4,5,6,7-tetrahydro-1H-indole-3-carboxamide] | 57.7% | 5.17 µM |  |  |  | 
Cc1[nH]c2c(c1C(=O)NCCN(C)C)CCC/C2=C1/C(=O)Nc2ccc(F)cc21 [I-6, N-(2-(dimethylamino)ethyl)-2-methyl-7-[1,2-dihydro-5-fluoro-2-oxo-3H-indol-(Z)-3-ylidene]-4,5,6,7-tetrahydro-1H-indole-3-carboxamide] | 27.1% |  |  |  |  | 
Cc1[nH]c2c(c1C(=O)NCC(O)CN1CCN(C)CC1)CCC/C2=C1/C(=O)Nc2ccc(F)cc21 (stereo not drawn) [I-77, N-[2-hydroxy-3-(4-methylpiperazin-1-yl)propyl]-2-methyl-7-[1,2-dihydro-5-fluoro-2-oxo-3H-indol-(Z)-3-ylidene]-4,5,6,7-tetrahydro-1H-indole-3-carboxamide] | 57.2% | 8.15 µM |  |  |  | 
CCN(CC)CCNC(=O)c1c(C)[nH]c2c1CCC/C2=C1/C(=O)Nc2ccc(Cl)cc21 [I-3, N-(2-(diethylamino)ethyl)-2-methyl-7-[1,2-dihydro-5-chloro-2-oxo-3H-indol-(Z)-3-ylidene]-4,5,6,7-tetrahydro-1H-indole-3-carboxamide] | 69.9% | 6.47 µM | 98.2% | 3.14 µM | 98.1% | 1.83 µM
Cc1[nH]c2c(c1C(=O)NCC(O)CN1CCOCC1)CCC/C2=C1/C(=O)Nc2ccc(F)cc21 (stereo not drawn) [I-68, N-(2-hydroxy-3-morpholinopropyl)-2-methyl-7-[1,2-dihydro-5-fluoro-2-oxo-3H-indol-(Z)-3-ylidene]-4,5,6,7-tetrahydro-1H-indole-3-carboxamide] | 29.1% |  |  |  |  | 
CCN(CC)CC(O)CNC(=O)c1c(C)[nH]c2c1CCC/C2=C1/C(=O)Nc2ccccc21 (stereo not drawn) [I-63, N-(3-(diethylamino)-2-hydroxypropyl)-2-methyl-7-[1,2-dihydro-2-oxo-3H-indol-(Z)-3-ylidene]-4,5,6,7-tetrahydro-1H-indole-3-carboxamide] | 79% | 2.27 µM | 100% | 3.15 µM | 99% | 3.04 µM
Cc1[nH]c2c(c1C(=O)NCC(O)CN1CCCC1)CCC/C2=C1/C(=O)Nc2ccccc21 (stereo not drawn) [I-70, N-(2-hydroxy-3-(pyrrolidin-1-yl)propyl)-2-methyl-7-[1,2-dihydro-2-oxo-3H-indol-(Z)-3-ylidene]-4,5,6,7-tetrahydro-1H-indole-3-carboxamide] | 87% | 2.64 µM |  |  |  | 
Cc1[nH]c2c(c1C(=O)NCCCN(C)C)CCC/C2=C1/C(=O)Nc2ccc(Cl)cc21 [I-7, N-(3-(dimethylamino)propyl)-2-methyl-7-[1,2-dihydro-5-chloro-2-oxo-3H-indol-(Z)-3-ylidene]-4,5,6,7-tetrahydro-1H-indole-3-carboxamide] | 62.7% | 5.99 µM |  |  |  | 
